In paper PMC8040252, “1,2,4-Oxadiazole-Bearing Pyrazoles as Metabolically Stable Modulators of Store-Operated Calcium Entry” (ACS Medicinal Chemistry Letters, 2021):
Marks after values point to notes of the source that are not given here.

Tests used:
[1] = system: Store-operated calcium entry (SOCE); experiment: SOCE in HEK cells, tBhQ store depletion and Ca2+ re-addition, Fura-2 calcium imaging; format: cell-based, human; conditions: Homo sapiens; for activity at 10 µM: HEK293, compound 10 μM, tBhQ 50 μM, vs control, mean ± SEM of three experiments, read-out: % SOCE residual activity (10 μM); for IC50: HEK293, mean ± SEM
Method: With this approach, 24 oxadiazole-bearing pyrazoles were synthesized and tested in human embryonic kidney (HEK) cells for SOCE inhibition. […] After 600 s, Ca^2+ was added and intracellular levels were measured in fluorescence microscopy with the calcium dye Fura-2. […] For these compounds, the cell viability was therefore evaluated. An MTT assay was performed and the compounds that affected cell viability by more than 25% at 10 μM were discarded (23, 31, and 33). […] According to both activity and cytotoxicity, for the selected five compounds, the representative traces are depicted in Figure 3.
Human embryonic kidney (Hek) cells were obtained from ATCC (Rockville, MD, USA) and were cultured in Dulbecco’s Modified Eagle’s Medium (DMEM; Sigma-Aldrich, Italy), supplemented with 10% heat-inactivated FBS (Gibco, Italy), L-glutamine […] (Sigma-Aldrich, Italy), 10 U/mL penicillin, and […] streptomycin (Sigma-Aldrich, Italy) at 37 °C, under a 5% CO2 humidified atmosphere. […]
(KRB, 135 mM NaCl, 5 mM KCl, 0.4 mM KH2PO4, 1 mM MgSO4, 5.5 mM glucose, 20mM HEPES, pH 7.4) containing 2 mM CaCl2 (30 min, room temperature). After which, cells were washed and incubated with KRB for other 30 min to allow de-esterification of […]. To measure SOCE, cells were depleted of calcium in the endoplasmic reticulum with 2,5-t-butylhydroquinone (tBhQ, 50 […]
For calcium imaging experiments, Hek cells were plated onto pre-treated poli-L-lysine (P4832, Sigma-Aldrich, Italy) glass coverslips of 24 mm in 6-well plates Cells were loaded with 5 µM of Fura-2 AM, 0.02% of Pluronic-127 (Life technologies, Italy) and 10 µM of sulfinpyrazone (Sigma-Aldrich, Italy) in KRB containing 2 mM CaCl2 for 30 min at RT. Cells were then washed once with KRB for 15 min for de-esterification of Fura-2 AM.
Coverslips were mounted into the acquisition chamber and placed on the stage of a Leica DMI6000 epifluorescent microscope equipped with S Fluor ×40/1.3 objective. Fura-2 AM was excited by alternate 340 and 380 nm using a Polychrome IV monochromator (Till Photonics, Germany), and the probe emission light was filtered through 520/20 bandpass filter and collected by a cooled CCD camera (Hamamatsu, Japan). The fluorescence signals were acquired and processed using MetaFluor software (Molecular Device, Sunnyvale, CA, USA). To quantify the differences in the amplitudes of Ca2+ transients, the ratio values were normalized using the formula ΔF/F0. […]
In calcium imaging experiments, data are presented as Mean +/- standard error (SEM) or Median and interquartile range (IQR). The normality of data distributions was assessed using the Shapiro−Wilk test. Nonparametric (Mann−Whitney U test and one-way) statistical analysis was used for comparisons of data. All statistical assessments were two-sided and a value of P <0.05 was considered statistically significant. Statistical analyses were performed using GraphPad Prism software (GraphPad Software, Inc., USA).

[2] = MTT cell viability assay in HEK cells; format: cell-based, human; conditions: human; for cytotoxicity at 24 h, 10 µM: compounds discarded, read-out: cell viability affected by; for viability at 24 h, 10 µM: mean ± SEM
Method: (§1) With this approach, 24 oxadiazole-bearing pyrazoles were synthesized and tested in human embryonic kidney (HEK) cells for SOCE inhibition. To this aim, intracellular Ca^2+ stores of HEK cells were emptied with t-butylhydroquinone (tBhQ, 50 μM) in the presence of the compounds at 10 μM concentration. After 600 s, Ca^2+ was added and intracellular levels were measured in fluorescence microscopy with the calcium dye Fura-2. […] For these compounds, the cell viability was therefore evaluated. An MTT assay was performed and the compounds that affected cell viability by more than 25% at 10 μM were discarded (23, 31, and 33). […] According to both activity and cytotoxicity, for the selected five compounds, the representative traces are depicted in Figure 3. […]
(§2) 3-(4,5-Dimethylthiazol-2-yl)-2,5-diphenyltetrazolium bromide (MTT) assay Hek cells were plated in 24-wells plate at 20.000 cells per well. After 24 h, cells were treated for other 24 h with the selected compounds. At the end of treatments, medium was removed and substituted by 300 µL of MTT reagent at the final concentration of 0.25 mg/mL for 60 min at 37 °C. Reactions were then stopped and the crystals were solubilized by adding isopropyl alcohol/HCl (1:1; vol:vol) (Sigma-Aldrich Inc., Italy), before reading the absorbance at 570 nm, using the multi-plate reader Victor 3V (PerkinElmer, Milan, Italy). […]
(§3) All statistical assessments were two-sided and a value of P <0.05 was considered statistically significant. Statistical analyses were performed using GraphPad Prism software (GraphPad Software, Inc., USA).

[3] = In vitro hepatic metabolic stability in MLS9 fraction with NADPH; format: in vitro ADME, mouse; conditions: after 1 h of incubation
Method: The five selected inhibitors (22, 27, 29, 32, and 42) and the identified SOCE enhancer (37) were then evaluated for their in vitro hepatic metabolic stability. To this aim, the candidates were incubated in MLS9 fraction supplied with NADPH and the residual substrate was measured after 1 h. Under these conditions, the oxadiazole-bearing pyrazoles resulted overall metabolically stable, with only two compounds affording a residual substrate lower than 80% and the remaining molecules higher than 90% after incubation (Table 1 and Supporting Information). In contrast, Pyr3 and CIC-37, which suffered from hydrolysis of the ester function, provided a residual substrate of 43 and 74%, respectively (Table 1).[35] Similarly, the residual substrate of Synta66 in MLM is of 15%, due to an important hydrolysis of the amide group, absent in our class (Table 1).[39]
In vitro metabolism and purity of lead compounds
In vitro metabolism studies
Mouse liver S9 (MLS9) (pooled male mouse CD-1, protein concentration: 20 mg/mL) were purchased from Corning B.V. Life Sciences (Amsterdam, The Netherlands) and used throughout this study. The standard incubation mixture (250 μL final volume) was carried out in a 50 mM TRIS (tris[hydroxymethyl]-aminomethane) + 150 mM KCl buffer (pH 7.4) containing 3.3 mM MgCl2, 1.3 mM β-NADP-Na 2, 3.3 mM glucose 6-phosphate, 0.4 Units/mL glucose 6-phosphate dehydrogenase (NADPH regenerating system), 5 μL of acetonitrile ([…]), and the substrate compounds at a concentration of 50 µM. After pre-equilibration of the mixture, an appropriate volume of MLS9 suspension was added to give a final protein concentration of 1.5 mg/mL. The mixture was shaken for 60 min at 37 °C. Each incubation was stopped by addition of 250 μL of ice-cold acetonitrile, vortexed, and centrifuged at 13000 rpm for 10 min. Control incubations were carried out without the presence of MLS9 suspension or cofactors or in absence of the substrate.
LC-UV method for purity and metabolic stability data determination: a Shimadzu HPLC system (Shimadzu, Kyoto, Japan), consisting of two LC-10AD Vp module pumps, an SLC-10A Vp system controller, an SIL-10AD Vp autosampler, and a DGU-14-A on-line degasser were used for the analysis. The SPD-M10Avp photodiode array detector was used to detect the analytes. LC-Solution 1.24 software was used to process the chromatograms.
• Column: Phenomenex Kinetex XB C18, 150 × 4.6 mm (5 µm d.p.) protected with a SecurityGuard® (Torrance, CA, USA).
A: 0.2% formic acid in water;
B: 0.2% formic acid in acetonitrile.

HEK cells = experiment: MTT cell viability assay in HEK cells; format: cell-based, human; conditions: 10 μM
Method: as §1, §2, §3

Compound | activity at 10 µM [1] | viability at 24 h, 10 µM [2] | also measured
Cc1noc(-c2cnn(-c3ccc(NC(=O)c4ccncc4F)cc3)c2C(F)(F)F)n1 [compound 20] | 53.6 ± 0.9% |  | 
Cc1noc(-c2cnn(-c3ccc(NC(=O)c4ccc5nc[nH]c5c4)cc3)c2C(F)(F)F)n1 [compound 31] | 47.4 ± 1% | 56.5 ± 2.5% | cytotoxicity at 24 h, 10 µM [2]: > 25%
Cc1noc(-c2cnn(-c3ccc(NC(=O)c4c(C)cccc4F)cc3)c2C(F)(F)F)n1 [compound 21] | 56.7 ± 1.3% |  | 
Cc1noc(-c2cnn(-c3ccc(NC(=O)C4CCS(=O)(=O)CC4)cc3)c2C(F)(F)F)n1 [compound 40] | 87.5 ± 3.8% |  | 
Cc1noc(-c2cnn(-c3ccc(NC(=O)Cc4ccc([N+](=O)[O-])cc4)cc3)c2C(F)(F)F)n1 [compound 28] | 108 ± 3.9% |  | 
Cc1noc(-c2cnn(-c3ccc(NC(=O)c4snnc4C)cc3)c2C(F)(F)F)n1 [compound 33] | 46.5 ± 2.8% | 59.1 ± 6.3% | cytotoxicity at 24 h, 10 µM [2]: > 25%
Cc1noc(-c2cnn(-c3ccc(NC(=O)c4ccc([N+](=O)[O-])cc4)cc3)c2C(F)(F)F)n1 [compound 27] | 40.8 ± 6.9% | 80.2 ± 7.4% | IC50 [1]: 5.5 ± 0.8 µM; MLS9 stability (residual substrate) [3]: >99% ^b; cytotoxicity (HEK cells): not cytotoxic
Cc1noc(-c2cnn(-c3ccc(NC(=O)c4ccc(C#N)c(F)c4)cc3)c2C(F)(F)F)n1 [compound 29] | 49.6 ± 6.5% | 101 ± 6.7% | IC50 [1]: 9.7 ± 2.3 µM; MLS9 stability (residual substrate) [3]: 73% ^b; cytotoxicity (HEK cells): not cytotoxic
Cc1noc(-c2cnn(-c3ccc(NC(=O)c4cc(Br)c[nH]4)cc3)c2C(F)(F)F)n1 [compound 35] | 69.8 ± 2.9% |  | melting point: 205 to 206 °C
Cc1noc(-c2cnn(-c3ccc(NC(=O)COc4ccccc4)cc3)c2C(F)(F)F)n1 [compound 41] | 63.6 ± 3.9% |  | 
Cc1noc(-c2cnn(-c3ccc(NC(=O)c4ccccc4I)cc3)c2C(F)(F)F)n1 [compound 30] | 53.2 ± 3.9% |  | 
Cc1noc(-c2cnn(-c3ccc(NC(=O)c4ccc(Cl)cc4)cc3)c2C(F)(F)F)n1 [compound 23] | 40.8 ± 3.6% | 72.9 ± 11.7% | cytotoxicity at 24 h, 10 µM [2]: > 25%
Cc1noc(-c2cnn(-c3ccc(NC(=O)c4ccc(C(F)(F)F)cc4)cc3)c2C(F)(F)F)n1 [compound 25] | 110 ± 5.9% |  | 
Cc1noc(-c2cnn(-c3ccc(NC(=O)c4ccc(C(O)(C(F)(F)F)C(F)(F)F)cc4)cc3)c2C(F)(F)F)n1 [compound 26] | 109 ± 6.5% |  | 
Cc1noc(-c2cnn(-c3ccc(NC(=O)c4cccc(C(=O)O)c4)cc3)c2C(F)(F)F)n1 [compound 19] | 77.2 ± 3.7% |  | 
Cc1noc(-c2cnn(-c3ccc(NC(=O)c4c(F)cccc4F)cc3)c2C(F)(F)F)n1 [compound 22] | 38.6 ± 4.3% | 95.6 ± 8.5% | IC50 [1]: 3.1 ± 1.4 µM; MLS9 stability (residual substrate) [3]: >99% ^b; cytotoxicity (HEK cells): not cytotoxic
CCOC(=O)c1cnn(-c2ccc(NC(=O)C(Cl)=C(Cl)Cl)cc2)c1C(F)(F)F [Pyr3, reference compound] | 8.9 ± 0.6% | 28.6 ± 0.5% | IC50 [1]: 0.5 ± 0.1 µM
Cc1noc(-c2cnn(-c3ccc(NC(=O)CCN4CCOCC4)cc3)c2C(F)(F)F)n1 [compound 39] | 95.9 ± 6.2% |  | 
COc1ccc(OC)c(-c2ccc(NC(=O)c3ccncc3F)cc2)c1 [Synta66, reference compound] | 9.2 ± 1.7% | 75.8 ± 8% | IC50 [1]: 0.2 ± 0.3 µM
CCCCCCCCCCCC(=O)Nc1ccc(-n2ncc(-c3nc(C)no3)c2C(F)(F)F)cc1 [compound 38] | 53.8 ± 4.4% |  | 
Cc1noc(-c2cnn(-c3ccc(NC(=O)Cc4ccc(Cl)cc4)cc3)c2C(F)(F)F)n1 [compound 24] | 121 ± 2.2% |  | 
CCCC(C)OC(=O)c1cnn(-c2ccc(-n3cc(-c4cccc(C(=O)O)c4)nn3)cc2)c1C(F)(F)F (centres unmarked) [CIC-37, reference compound] | 17.5 ± 1.6% | 93.6 ± 4.6% | IC50 [1]: 4.4 ± 1.2 µM
COc1ccccc1NS(=O)(=O)c1cc(C(=O)Nc2ccc(-n3ncc(-c4nc(C)no4)c3C(F)(F)F)cc2)ccc1C [compound 36] | 59.9 ± 4.2% |  | 
Cc1noc(-c2cnn(-c3ccc(NC(=O)c4c(C)noc4C)cc3)c2C(F)(F)F)n1 [compound 32] | 33.2 ± 1.9% | 77.7 ± 4.4% | IC50 [1]: 9.6 ± 2.5 µM; MLS9 stability (residual substrate) [3]: 99% ^b; cytotoxicity (HEK cells): not cytotoxic
